Laboratory results taken from patent US10508105B2, “Indazole compounds as mGluR4 allosteric potentiators, compositions, and methods of treating neurological dysfunction” (Vanderbilt University, priority 2017, dated 2019).
Read-outs that look alike come from different tables or passages of the source.

Legend:
human mGlu4 = human mGlu4 (Homo sapiens (Human), UniProt Q14833); assay: mGlu4 PAM assay in human mGlu4/Gqi5 cells with ~EC20 glutamate (Hamamatsu FDSS); format: cell-based; conditions: ~EC20 concentration of glutamate
Procedure: The disclosed compounds and compositions can be evaluated for their ability to act as a potentiatior of metabotropic glutamate receptor activity, in particular mGluR4 activity, by any suitable known methodology known in the art. For example, Chinese Hamster Ovary (CHO) cells transfected with human mGluR4 or HEK cells co-transfected with rat mGluR4 and the G-protein regulated Inwardly Rectifying Potassium channel (GIRK) were plated in clear bottom assay plates for assay in a Hamamatsu FDSS Fluorometric Plate Reader. The cells were loaded with either a Ca2+-sensitive fluorescent dye or the thallium responsive dye and the plates were washed and placed into a suitable kinetic plate reader. For human mGluR4 assays, a fluorescence baseline was established for 3-5 seconds, the disclosed compounds were then added to the cells, and the response in cells was measured. Approximately two and a half minutes later, a concentration of mGluR4 orthosteric agonist (e.g. glutamate, L-AP4, or L-SOP) eliciting approximately 20% (EC20) of the maximal agonist response was added to the cells, and the response was measured. Two minutes later, a concentration of mGluR4 agonist (e.g. glutamate, L-AP4, or L-SOP) eliciting 80% (EC80) of the maximal agonist response was added to the cells, and the response was measured. For rat mGluR4/GIRK experiments, a baseline was established for approximately five seconds, disclosed compounds were added, and either an EC20 or EC80 concentration of agonist was added approximately two and one half minutes later.
The above described assay operated in two modes. In the first mode, a range of concentrations of the disclosed compounds are added to cells, followed by a single fixed concentration of agonist. If the compound acts as a potentiatior, an EC50 value for potentiation and a maximum extent of potentiation by the compound at this concentration of agonist is determined by non-linear curve fitting. If the compound acts as an antagonist, an IC50 value is determined by non-linear curve fitting. In the second mode, several fixed concentrations of the disclosed compounds are added to various wells on a plate, followed by a range in concentrations of agonist for each concentration of disclosed compound. The EC50 values for the agonist at each concentration of compound are determined by non-linear curve fitting. A decrease in the EC50 value of the agonist with increasing concentrations of the sample compound (a leftward shift of the agonist concentration-response curve) is an indication of the degree of mGluR4 potentiation at a given concentration of the sample compound. A decrease in the maximal response of the agonist with increasing concentrations of the sample compounds, with or without a rightward shift in agonist potency, is an indication of the degree of antagonism at mGluR4. The second mode also indicates whether the sample compounds also affect the maximum response to mGluR4 to agonists.

Brain-Plasma Kp = format: in vivo; conditions: brain and plasma

human mGlu4, sequence (Q14833 33-912): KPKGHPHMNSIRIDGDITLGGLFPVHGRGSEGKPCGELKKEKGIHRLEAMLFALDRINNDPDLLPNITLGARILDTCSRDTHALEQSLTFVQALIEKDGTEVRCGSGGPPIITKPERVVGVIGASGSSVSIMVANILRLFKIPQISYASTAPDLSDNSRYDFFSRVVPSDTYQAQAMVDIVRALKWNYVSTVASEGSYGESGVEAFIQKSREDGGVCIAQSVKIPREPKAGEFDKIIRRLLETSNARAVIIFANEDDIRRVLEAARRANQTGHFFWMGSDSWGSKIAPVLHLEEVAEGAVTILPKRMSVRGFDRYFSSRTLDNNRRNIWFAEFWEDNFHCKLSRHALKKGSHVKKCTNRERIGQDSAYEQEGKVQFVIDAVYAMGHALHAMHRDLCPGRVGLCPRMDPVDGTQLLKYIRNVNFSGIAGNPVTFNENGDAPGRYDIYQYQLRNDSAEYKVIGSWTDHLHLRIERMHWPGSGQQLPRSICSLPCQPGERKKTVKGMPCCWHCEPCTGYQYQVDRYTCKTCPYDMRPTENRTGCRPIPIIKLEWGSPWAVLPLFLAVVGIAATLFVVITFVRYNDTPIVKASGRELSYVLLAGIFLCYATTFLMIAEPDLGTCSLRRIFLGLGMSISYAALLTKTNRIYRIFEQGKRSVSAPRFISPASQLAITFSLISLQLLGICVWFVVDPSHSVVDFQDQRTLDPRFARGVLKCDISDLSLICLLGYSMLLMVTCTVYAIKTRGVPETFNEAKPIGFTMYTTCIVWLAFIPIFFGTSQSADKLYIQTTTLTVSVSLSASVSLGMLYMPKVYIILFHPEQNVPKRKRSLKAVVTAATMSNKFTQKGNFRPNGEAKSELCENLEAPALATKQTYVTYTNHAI

Row | Structure (SMILES) | EC50 (human mGlu4; read-out: mGlu4 PAM EC50) [µM] | further results
1 | Cn1nc(OCC2CCOC2)c2ccc(NC(=O)c3cccc(F)n3)cc21 (stereo not drawn) [drawing 251] |  | EC50 (human mGlu4; read-out: hmGluR4 PAM EC50): 0.266 µM; Kp (Brain-Plasma Kp; rat): 3.35
2 | Cn1nc(OCC2CCOC2)c2ccc(NC(=O)c3ncccc3N)cc21 (stereo not drawn) [drawing 241] |  | EC50 (human mGlu4; read-out: hmGluR4 PAM EC50): 0.0754 µM; Kp (Brain-Plasma Kp; rat): 3.09
3 | O=C(Nc1ccc2c(OC[C@H]3CCOC3)n[nH]c2c1)c1ccccn1 |  | EC50 (human mGlu4; read-out: hmGluR4 PAM EC50): 0.228 µM; Kp (Brain-Plasma Kp; rat): 1.42
4 | O=C(Nc1ccc2c(OC[C@@H]3CCOC3)n[nH]c2c1)c1ccccn1 |  | EC50 (human mGlu4; read-out: hmGluR4 PAM EC50): 0.201 µM; Kp (Brain-Plasma Kp; rat): 1.44
5 | Cn1nc(OC[C@@H]2CCOC2)c2ccc(NC(=O)c3ncccc3N)cc21 [drawing 244] |  | EC50 (human mGlu4; read-out: hmGluR4 PAM EC50): 0.0273 µM; Kp (Brain-Plasma Kp; rat): 2.47
6 | O=C(Nc1ccc2c(OCC3CCOC3)n[nH]c2c1)c1ccccn1 (stereo not drawn) |  | EC50 (human mGlu4; read-out: hmGluR4 PAM EC50): 0.36 µM; Kp (Brain-Plasma Kp; rat): 2.09
7 | Cn1nc(C(=O)NC23CC(F)(C2)C3)c2ccc(NC(=O)c3ccccn3)cc21 |  | EC50 (human mGlu4; read-out: hmGluR4 PAM EC50): 0.569 µM; Kp (Brain-Plasma Kp; rat): 1.43
8 | Cn1nc(OCC2CCOCC2)c2ncc(NC(=O)c3ccccn3)cc21 [drawing 243] |  | EC50 (human mGlu4; read-out: hmGluR4 PAM EC50): 0.394 µM; Kp (Brain-Plasma Kp; rat): 1.51
9 | Cn1nc(OC[C@H]2CCOC2)c2ccc(NC(=O)c3ncccc3N)cc21 [drawing 245] |  | EC50 (human mGlu4; read-out: hmGluR4 PAM EC50): 0.0242 µM; Kp (Brain-Plasma Kp; rat): 2.9
10 | Cn1nc(OC[C@@H]2COCCO2)c2ccc(NC(=O)c3ccccn3)cc21 |  | EC50 (human mGlu4; read-out: hmGluR4 PAM EC50): 0.119 µM; Kp (Brain-Plasma Kp; rat): 1.47
11 | Cn1nc(OC[C@H]2CCOC2)c2ncc(NC(=O)c3ncccc3N)cc21 [drawing 247] |  | EC50 (human mGlu4; read-out: hmGluR4 PAM EC50): 0.166 µM; Kp (Brain-Plasma Kp; rat): 1.83
12 | Cn1nc(OC[C@@H]2COCCO2)c2ccc(NC(=O)c3ncccc3N)cc21 [drawing 248] |  | EC50 (human mGlu4; read-out: hmGluR4 PAM EC50): 0.0501 µM; Kp (Brain-Plasma Kp; rat): 2.3
13 | Cn1nc(OC[C@@H]2CCOC2)c2ncc(NC(=O)c3ncccc3N)cc21 [drawing 246] |  | EC50 (human mGlu4; read-out: hmGluR4 PAM EC50): 0.12 µM; Kp (Brain-Plasma Kp; rat): 1.84
14 | Cn1nc(C(=O)NC2CC(F)(F)C2)c2ccc(NC(=O)c3ccc(F)cn3)cc21 |  | EC50 (human mGlu4; read-out: hmGluR4 PAM EC50): 0.324 µM; Kp (Brain-Plasma Kp; rat): 1.09
15 | Cn1nc(OCC2COC2)c2ccc(Nc3n[nH]c4cccnc34)cc21 [Compound 27] | 0.0964 | 
16 | Cn1nc(OC2CCOC(C)(C)C2)c2ccc(Nc3n[nH]c4cccnc34)cc21 (stereo not drawn) [Compound 63] | 0.169 | 
17 | Cn1nc(OC2CC3CCC2O3)c2ccc(Nc3n[nH]c4cccnc34)cc21 (stereo not drawn) [Compound 37] | 0.306 | 
18 | Cn1nc(OCC2COC(C)(C)C2)c2ccc(NC(=O)c3ccc(F)cn3)cc21 (stereo not drawn) [Compound 103] | 0.297 | 
19 | Cn1nc(OC[C@H]2COCCO2)c2ccc(NC(=O)c3ccccn3)cc21 [Compound 81] | 0.205 | 
20 | Cn1nc(OC[C@H]2COCCO2)c2ccc(NC(=O)c3ncccc3N)cc21 [drawing 249] |  | EC50 (human mGlu4; read-out: hmGluR4 PAM EC50): 0.0587 µM; Kp (Brain-Plasma Kp; rat): 1.88

Row | Structure (SMILES) | EC50 (human mGlu4; read-out: mGlu4 PAM EC50) [µM] | further results
21 | Cc1ccoc1C(=O)Nc1ccc2c(OCC3CCOC3)nn(C)c2c1 (stereo not drawn) [Compound 96] | 0.339 | 
22 | Cn1nc(OCC2CCOCC2)c2ccc(NC(=O)c3ccc(F)cn3)cc21 |  | EC50 (human mGlu4; read-out: hmGluR4 PAM EC50): 0.0992 µM; Kp (Brain-Plasma Kp): 3.29
23 | CC1CC(Oc2nn(C)c3cc(NC(=O)c4ncccc4N)ccc23)CCO1 (stereo not drawn) [Compound 74] | 0.431 | 
24 | Cn1nc(OCCN2CCOCC2)c2ccc(NC(=O)c3ccccn3)cc21 [Compound 76] | 0.703 | 
25 | Cn1nc(OCC2CCOC(C)(C)C2)c2ccc(NC(=O)c3ccccn3)cc21 (stereo not drawn) [Compound 104] | 0.0588 | 
26 | Cn1nc(OCC2CC2(F)F)c2ccc(Nc3n[nH]c4cccnc34)cc21 (stereo not drawn) [Compound 31] | 0.112 | 
27 | Cn1nc(OCC2COCCO2)c2ccc(NC(=O)c3ncccc3N)cc21 (stereo not drawn) [Compound 82] | 0.0661 | 
28 | Cn1nc(OCC2CCOC2)c2ccc(NC(=O)c3cccc(F)n3)cc21 (stereo not drawn) [Compound 95] | 0.211 | 
29 | [2H]C([2H])(C)Oc1nn(C)c2cc(Nc3n[nH]c4cccnc34)ccc12 [Compound 7] | 0.356 | 
30 | Cn1nc(OCC2CCCOC2)c2ccc(Nc3n[nH]c4cccnc34)cc21 (stereo not drawn) [Compound 88] | 0.0638 | 
31 | CC1CC(Oc2nn(C)c3cc(Nc4n[nH]c5cccnc45)ccc23)CCO1 (stereo not drawn) [Compound 65] | 0.134 | 
32 | Cn1nc(Oc2ccc(C#N)cn2)c2ccc(Nc3n[nH]c4cccnc34)cc21 [Compound 11] | 0.157 | 
33 | Cn1nc(OC2CCS(=O)(=O)C2)c2ccc(NC(=O)c3ncccc3N)cc21 (stereo not drawn) [Compound 54] | 0.117 | 
34 | CC1CC(COc2nn(C)c3cc(NC(=O)c4ccc(F)cn4)ccc23)CC(C)O1 (stereo not drawn) [Compound 109] | 0.0836 | 
35 | Cn1nc(OC[C@@H]2CCOC2)c2ccc(NC(=O)c3ncccc3N)cc21 [Compound 79] | 0.0273 | 
36 | Cn1nc(OCCOc2ccc(F)cc2)c2ccc(Nc3n[nH]c4cccnc34)cc21 [Compound 18] | 0.852 | 
37 | Cn1nc(OCC2COC(C)(C)C2)c2ccc(NC(=O)c3ccccn3)cc21 (stereo not drawn) [Compound 101] | 0.0756 | 
38 | Cn1nc(OCC2CCOC2)c2ncc(NC(=O)c3ccccn3)cc21 (stereo not drawn) [Compound 55] | 0.873 | 
39 | Cn1nc(OCC2CCOC2)c2ncc(NC(=O)c3ncccc3N)cc21 (stereo not drawn) [drawing 242] |  | EC50 (human mGlu4; read-out: hmGluR4 PAM EC50): 0.0868 µM; Kp (Brain-Plasma Kp; rat): 0.72
40 | Cn1nc(C(=O)NC2CCOC2)c2ccc(NC(=O)c3ncccc3N)cc21 (stereo not drawn) [Compound 111] | 0.421 | 

Row | Structure (SMILES) | EC50 (human mGlu4; read-out: mGlu4 PAM EC50) [µM] | further results
41 | Cc1cc(COc2nn(C)c3cc(Nc4n[nH]c5cccnc45)ccc23)no1 [Compound 12] | 0.203 | 
42 | CC1CC(COc2nn(C)c3cc(NC(=O)c4ncccc4N)ccc23)CC(C)O1 (stereo not drawn) [Compound 108] | 0.187 | 
43 | Cn1nc(OCC2CCOCC2)c2ncc(Nc3n[nH]c4ncccc34)cc21 [Compound 62] | 0.353 | 
44 | Cn1nc(OCC(F)(F)F)c2ccc(Nc3n[nH]c4cccnc34)cc21 [Compound 13] | 0.175 | 
45 | Cn1nc(OCC2CCOCC2)c2ccc(NC(=O)c3ncccc3O)cc21 [Compound 118] | 0.0368 | 
46 | Cn1nc(OCC2CCOC2)c2ccc(NC(=O)c3ncccc3N)cc21 (stereo not drawn) [Compound 115] | 0.0754 | 
47 | Cn1nc(OCC2CCOC2)c2ccc(NC(=O)c3nccnc3N)cc21 (stereo not drawn) [Compound 92] | 0.115 | 
48 | Cn1nc(OCC2COC(C)(C)C2)c2ccc(NC(=O)c3ncccc3N)cc21 (stereo not drawn) [Compound 102] | 0.109 | 
49 | Cn1nc(OCC2CCOC2)c2ccc(NC(=O)c3ncc(F)cc3F)cc21 (stereo not drawn) [Compound 100] | 0.801 | 
50 | Cn1nc(OCC2CCOC2)c2ncc(Nc3n[nH]c4cccnc34)cc21 (stereo not drawn) [Compound 60] | 0.293 | 
51 | Cn1nc(OCC2COCCO2)c2ccc(Nc3n[nH]c4cccnc34)cc21 (stereo not drawn) [Compound 35] | 0.361 | 
52 | Cn1nc(Oc2cccc(C#N)n2)c2ccc(Nc3n[nH]c4cccnc34)cc21 [Compound 16] | 0.111 | 
53 | Cn1nc(OC2CCS(=O)(=O)C2)c2ccc(NC(=O)c3ccccn3)cc21 (stereo not drawn) [Compound 53] | 0.272 | 
54 | Cn1nc(OC2CCS(=O)(=O)CC2)c2ccc(NC(=O)c3ncccc3N)cc21 [Compound 113] | 0.142 | 
55 | CC1CC(Oc2nn(C)c3cc(NC(=O)c4ccccn4)ccc23)CCO1 (stereo not drawn) [Compound 73] | 0.398 | 
56 | CC1CC(COc2nn(C)c3cc(NC(=O)c4ccccn4)ccc23)CC(C)O1 (stereo not drawn) [Compound 107] | 0.0451 | 
57 | COc1nn(C)c2cc(Nc3n[nH]c4cccnc34)cc(Cl)c12 [Compound 26] | 0.707 | 
58 | Cn1nc(Oc2ncccc2C#N)c2ccc(Nc3n[nH]c4cccnc34)cc21 [Compound 15] | 0.184 | 
